The series has as its system CSNK2A1. Put plainly: Doxycycline-dependent shRNA inhibition of CSNK2A1 expression in embryonic stem cell line E14, western blotting. Type of series: cell-based, mouse. To be noted: E14 cells, lentivirus, FIG. 24. The text has this: To confirm the relationship between CSNK2A1 and OCT4 phosphorylation using a kinase inducing the phosphorylation of serine 351 of OCT4, a cell line for regulating the inhibition of CSNK2A1 expression was produced. To this end, a lentivirus doxycycline-dependently expressing shRNA of SEQ ID NO: 5 or 6 was produced and transfected into an embryonic stem cell line E14, thereby producing a cell line capable of regulating CSNK2A1 expression using doxycycline.
Background: In western blotting, separated proteins are transferred to a membrane and probed.

For “shRNA of SEQ ID NO: 5: short hairpin RNA inhibiting CSNK2A1 expression, base sequence of SEQ ID NO: 5 (CCGGCCGAGUUGCUUCUCGAUAUUUCUCGAGAAAUAUCGAGAAGCAACUCGGUUUUG)”, the “OCT4 phosphorylation after inhibition of CSNK2A1 expression” value was “a kinase inducing OCT4 phosphorylation is CSNK2A1”.

Consider “shRNA of SEQ ID NO: 6: short hairpin RNA inhibiting CSNK2A1 expression, base sequence of SEQ ID NO: 6 (CCGGACAGACUAUGACAUUCGAUUUCUCGAGAAAUCGAAUGUCAUAGUCUGUUUUUUG)”, for which the “OCT4 phosphorylation after inhibition of CSNK2A1 expression” value is on record as “a kinase inducing OCT4 phosphorylation is CSNK2A1”.

The values above are taken from US12174174B2, “Composition comprising material for regulating OCT4 modification to repress stemness” (NATIONAL CANCER CENTER, priority 2018, dated 2024).
